Data taken from publication PMC8523698, “Preclinical characterization of an intravenous coronavirus 3CL protease inhibitor for the potential treatment of COVID19” (Nature Communications, 2021).
Several values for one entry are separate records, joined by “and”; a condition that tells them apart may be missing. Equal entries are not always repeated. Where two headings read alike, the source gives them in different places.

Assays:
[1] = Plasma protein binding by equilibrium dialysis; conditions: monkey plasma, 3.44 uM; for fraction unbound at 6 h, 3.44 uM: plasma
CYP3A4/5 [2] = assay: Time-dependent inhibition of CYP enzymes in human liver microsomes; conditions: pooled HLM
OATP1B1 = biological target: T1, OATP1B1 (Homo sapiens, UniProt Q9Y6L6); assay: Transporter inhibition using transfected HEK293 cells; conditions: IC50, Rosuvastatin (0.5 µM)
T1 sequence (Q9Y6L6 1-691): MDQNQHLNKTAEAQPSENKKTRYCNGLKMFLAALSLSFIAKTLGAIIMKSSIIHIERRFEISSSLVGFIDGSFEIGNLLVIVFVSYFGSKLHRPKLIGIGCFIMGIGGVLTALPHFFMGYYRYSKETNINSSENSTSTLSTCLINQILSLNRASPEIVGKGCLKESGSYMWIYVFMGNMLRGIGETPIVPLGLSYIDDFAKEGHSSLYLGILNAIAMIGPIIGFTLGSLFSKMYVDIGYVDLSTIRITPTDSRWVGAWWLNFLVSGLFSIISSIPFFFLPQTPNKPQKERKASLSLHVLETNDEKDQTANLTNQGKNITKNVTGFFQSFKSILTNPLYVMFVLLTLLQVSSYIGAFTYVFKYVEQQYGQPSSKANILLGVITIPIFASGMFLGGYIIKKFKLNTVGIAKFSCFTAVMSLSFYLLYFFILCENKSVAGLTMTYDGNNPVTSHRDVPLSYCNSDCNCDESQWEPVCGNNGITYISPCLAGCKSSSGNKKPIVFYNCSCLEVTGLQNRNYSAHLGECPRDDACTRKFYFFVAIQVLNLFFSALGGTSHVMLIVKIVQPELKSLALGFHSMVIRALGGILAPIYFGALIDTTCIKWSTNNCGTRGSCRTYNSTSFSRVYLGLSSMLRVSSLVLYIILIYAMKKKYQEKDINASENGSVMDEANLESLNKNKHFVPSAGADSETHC

CYP2D6 = CYP2D6 (Homo sapiens, UniProt P10635); assay: Reversible CYP inhibition in human liver microsomes
Chain of CYP2D6 (P10635 whole entry): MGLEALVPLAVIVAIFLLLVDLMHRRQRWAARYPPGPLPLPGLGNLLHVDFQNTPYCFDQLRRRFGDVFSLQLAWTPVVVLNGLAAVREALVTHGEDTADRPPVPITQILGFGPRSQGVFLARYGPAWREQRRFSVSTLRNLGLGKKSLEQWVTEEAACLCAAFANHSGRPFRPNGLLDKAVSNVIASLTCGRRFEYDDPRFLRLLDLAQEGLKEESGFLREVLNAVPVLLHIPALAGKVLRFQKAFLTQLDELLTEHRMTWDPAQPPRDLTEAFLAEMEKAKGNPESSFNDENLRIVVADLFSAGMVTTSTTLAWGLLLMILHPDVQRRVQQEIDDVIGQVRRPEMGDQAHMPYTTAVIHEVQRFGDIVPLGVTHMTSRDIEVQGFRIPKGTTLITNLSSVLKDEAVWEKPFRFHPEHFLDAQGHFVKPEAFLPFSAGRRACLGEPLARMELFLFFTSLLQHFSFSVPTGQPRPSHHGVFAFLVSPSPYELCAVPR

[3] = test system: Salmonella typhimurium strains and E. coli strain WP2 uvrA; assay: Bacterial reverse mutation assay; conditions: with and without metabolic activation
MATE1 = biological target: T2, MATE1 (Homo sapiens, UniProt Q96FL8); assay: Transporter inhibition using transfected HEK293 cells; conditions: IC50, [14C]Metformin (20 µM)
T2 sequence (Q96FL8 1-570): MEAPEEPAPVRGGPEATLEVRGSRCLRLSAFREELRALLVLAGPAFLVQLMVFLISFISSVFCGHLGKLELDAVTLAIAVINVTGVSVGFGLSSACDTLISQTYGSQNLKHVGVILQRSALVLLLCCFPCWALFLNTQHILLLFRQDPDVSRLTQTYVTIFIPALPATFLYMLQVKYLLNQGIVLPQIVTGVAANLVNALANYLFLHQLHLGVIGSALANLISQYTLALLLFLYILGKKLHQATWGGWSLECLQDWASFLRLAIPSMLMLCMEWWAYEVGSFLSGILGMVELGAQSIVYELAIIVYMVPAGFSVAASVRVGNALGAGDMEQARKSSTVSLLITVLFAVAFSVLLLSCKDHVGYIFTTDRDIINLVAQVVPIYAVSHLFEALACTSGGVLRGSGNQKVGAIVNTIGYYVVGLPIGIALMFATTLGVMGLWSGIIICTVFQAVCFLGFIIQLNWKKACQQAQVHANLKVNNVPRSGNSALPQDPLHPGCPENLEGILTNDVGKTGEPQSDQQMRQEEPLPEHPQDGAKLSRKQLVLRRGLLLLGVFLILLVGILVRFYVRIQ

CYP3A4/5 [4] = assay: Reversible CYP inhibition in human liver microsomes; conditions: for IC50: pH 7.4, probe midazolam (1′-hydroxylation), at approximately KM, IC50, Midazolam 1′-hydroxylation
[5] = human, human liver microsomes, pH 7.4, probe midazolam (mdz), Percent of Control Activity, CYP 3A4/5 (mdz), 30-Minute Preincubation
[6] = human, human liver microsomes, pH 7.4, probe midazolam (mdz), Percent of Control Activity, CYP 3A4/5 (mdz), Zero-Minute Preincubation

**Q.** Which results are given for COc1cccc2[nH]c(C(=O)N[C@@H](CC(C)C)C(=O)N[C@@H](C[C@@H]3CCNC3=O)C(=O)COP(=O)(O)O)cc12 [PF-07304814]?
**A.** fraction unbound at 6 h, 3.44 uM ([1]; both, Cynomologous, cynomolgus monkey, pH 7.4, Individual fraction unbound, Cynomologous, male and female, Day 1): 0.388; fraction unbound at 6 h, 3.44 uM ([1]; both, Cynomologous, cynomolgus monkey, pH 7.4, Individual fraction unbound, Cynomologous, male and female, Day 2): 0.356; fraction unbound at 6 h, 3.44 uM ([1]; both, Cynomologous, cynomolgus monkey, pH 7.4, Individual fraction unbound, Cynomologous, male and female, Day 3): 0.442; Individual fraction unbound ([1]; Cynomologous, male and female, Day 1): 0.366 and 0.39 and 0.393; Individual fraction unbound ([1]; Cynomologous, male and female, Day 2): 0.318 and 0.315 and 0.319; Individual fraction unbound ([1]; Cynomologous, male and female, Day 3): 0.37 and 0.354 and 0.347; fraction unbound at 6 h, 3.44 uM ([1]; monkey, pH 7.4, fraction unbound Geomean, n=12): 0.361; time-dependent inhibition (TDI) signal (CYP3A4/5 [2]): no evidence of TDI; IC50 (OATP1B1): 134 µM and > 130 µM; IC50 (CYP2D6): > 100 µM; Percent of Control Activity (CYP2D6; CYP 2D6, 0.01 µM, 30-Minute Preincubation, 0.01 µM): 97.3% and 99.6%; Percent of Control Activity (CYP2D6; CYP 2D6, 0.01 µM, Zero-Minute Preincubation, 0.01 µM): 101.0% and 93.7%; Percent of Control Activity (CYP2D6; CYP 2D6, 0.158 µM, 30-Minute Preincubation, 0.158 µM): 96.0%; Percent of Control Activity (CYP2D6; CYP 2D6, 0.158 µM, Zero-Minute Preincubation, 0.158 µM): 97.1% and 95.4%; Percent of Control Activity (CYP2D6; CYP 2D6, 0.398 µM, 30-Minute Preincubation, 0.398 µM): 95.2% and 103.0%; Percent of Control Activity (CYP2D6; CYP 2D6, 0.398 µM, Zero-Minute Preincubation, 0.398 µM): 98.0% and 97.1%; Percent of Control Activity (CYP2D6; CYP 2D6, 1 µM, 30-Minute Preincubation, 1 µM): 95.2% and 99.6%; Percent of Control Activity (CYP2D6; CYP 2D6, 1 µM, Zero-Minute Preincubation, 1 µM): 94.2%; Percent of Control Activity (CYP2D6; CYP 2D6, 15.8 µM, 30-Minute Preincubation, 15.8 µM): 101.2% and 99.3%; Percent of Control Activity (CYP2D6; CYP 2D6, 15.8 µM, Zero-Minute Preincubation, 15.8 µM): 97.0%; Percent of Control Activity (CYP2D6; CYP 2D6, 39.8 µM, 30-Minute Preincubation, 39.8 µM): 99.9% and 102.0%; Percent of Control Activity (CYP2D6; CYP 2D6, 39.8 µM, Zero-Minute Preincubation, 39.8 µM): 95.5% and 101.2%; Percent of Control Activity (CYP2D6; CYP 2D6, 100 µM, 30-Minute Preincubation, 100 µM): 93.7% and 95.4%; Percent of Control Activity (CYP2D6; CYP 2D6, 100 µM, Zero-Minute Preincubation, 100 µM): 68.1% and 92.0% and 98.1%; IC50 (CYP2D6; Dextromethorphan O-demethylation, T0): > 100 µM; activity at 0.01 µM (CYP2D6; human, microsomes, pH 7.4, Percent of Control Activity, CYP 2D6, 0.01 µM, 30-Minute Preincubation): 101%; activity at 0.01 µM (CYP2D6; human, microsomes, pH 7.4, Percent of Control Activity, CYP 2D6, 0.01 µM, Zero-Minute Preincubation): 99.1%; activity at 0.158 µM (CYP2D6; human, microsomes, pH 7.4, Percent of Control Activity, CYP 2D6, 0.158 µM, 30-Minute Preincubation): 103%; activity at 0.158 µM (CYP2D6; human, microsomes, pH 7.4, Percent of Control Activity, CYP 2D6, 0.158 µM, Zero-Minute Preincubation): 102%; activity at 0.398 µM (CYP2D6; human, microsomes, pH 7.4, Percent of Control Activity, CYP 2D6, 0.398 µM, 30-Minute Preincubation): 103%; activity at 0.398 µM (CYP2D6; human, microsomes, pH 7.4, Percent of Control Activity, CYP 2D6, 0.398 µM, Zero-Minute Preincubation): 101%; activity at 1 µM (CYP2D6; human, microsomes, pH 7.4, Percent of Control Activity, CYP 2D6, 1 µM, 30-Minute Preincubation): 104%; activity at 1 µM (CYP2D6; human, microsomes, pH 7.4, Percent of Control Activity, CYP 2D6, 1 µM, Zero-Minute Preincubation): 98.7%; activity at 15.8 µM (CYP2D6; human, microsomes, pH 7.4, Percent of Control Activity, CYP 2D6, 15.8 µM, 30-Minute Preincubation): 102%; activity at 15.8 µM (CYP2D6; human, microsomes, pH 7.4, Percent of Control Activity, CYP 2D6, 15.8 µM, Zero-Minute Preincubation): 106%; activity at 39.8 µM (CYP2D6; human, microsomes, pH 7.4, Percent of Control Activity, CYP 2D6, 39.8 µM, 30-Minute Preincubation): 102%; activity at 39.8 µM (CYP2D6; human, microsomes, pH 7.4, Percent of Control Activity, CYP 2D6, 39.8 µM, Zero-Minute Preincubation): 102%; activity at 100 µM (CYP2D6; human, microsomes, pH 7.4, Percent of Control Activity, CYP 2D6, 100 µM, 30-Minute Preincubation): 102%; bacterial reverse mutation assay result [3]: negative; IC50 (MATE1): > 300 µM; Percent of Control Activity (CYP3A4/5 [4]; CYP 3A4/5 (mdz), 0.01 µM, 30-Minute Preincubation): 103.5%; Percent of Control Activity (CYP3A4/5 [4]; CYP 3A4/5 (mdz), 15.8 µM, Zero-Minute Preincubation): 105.7%; Percent of Control Activity (CYP3A4/5 [4]; CYP 3A4/5 (mdz), 39.8 µM, 30-Minute Preincubation): 99.7%; Percent of Control Activity (CYP3A4/5 [4]; CYP 3A4/5 (mdz), 100 µM, 30-Minute Preincubation): 95.6%; Percent of Control Activity (CYP3A4/5 [4]; CYP 3A4/5 (mdz), 100 µM, Zero-Minute Preincubation): 100.4%; IC50 (CYP3A4/5 [4]; human, human liver microsomes, T0): > 100 µM; IC50 (CYP3A4/5 [4]; human, human liver microsomes, T30): > 100 µM; activity at 0.01 µM (CYP3A4/5 [4]; human, human liver microsomes, pH 7.4, probe midazolam (mdz), Percent of Control Activity, CYP 3A4/5 (mdz), 0.01 µM, Zero-Minute Preincubation): 96.3%; activity at 0.158 µM (CYP3A4/5 [4]; [5]): 103%; activity at 0.158 µM (CYP3A4/5 [4]; [6]): 95%; activity at 0.398 µM (CYP3A4/5 [4]; human, human liver microsomes, pH 7.4, probe midazolam (mdz), Percent of Control Activity, CYP 3A4/5 (mdz), 0.398 µM, 30-Minute Preincubation): 100%; activity at 1 µM (CYP3A4/5 [4]; [5]): 100%; activity at 1 µM (CYP3A4/5 [4]; [6]): 99.8%; activity at 15.8 µM (CYP3A4/5 [4]; human, human liver microsomes, pH 7.4, probe midazolam (mdz), Percent of Control Activity, CYP 3A4/5 (mdz), 15.8 µM, Zero-Minute Preincubation): 101%; activity at 100 µM (CYP3A4/5 [4]; human, human liver microsomes, pH 7.4, probe midazolam (mdz), Percent of Control Activity, CYP 3A4/5 (mdz), 100 µM, 30-Minute Preincubation): 95%
